# Results from ChEMBL document CHEMBL4393671, “Design of a Cyclin G Associated Kinase (GAK)/Epidermal Growth Factor Receptor (EGFR) Inhibitor Set to Interrogate the Relationship of EGFR and GAK in Chordoma” (J Med Chem, 2019).
# Active and inactive are the calls of the source. The calls are words filed in the database; no cut-off is given here.
# Legend:
# [1] = species: Homo sapiens; test: Selectivity ratio of Kd for wild-type human partial length EGFR (R669 to V1011 residues) expressed in bacterial expression system to kd for wild-type human partial length GAK (G13 to Y338 residues) expressed in bacterial expression system
# [2] = cells; type: functional, cell-based; details: Homo sapiens, UCH2, 72 h
# Description: Antiproliferative activity against human UCH2 cells measured after 72 hrs by alamar blue assay
# [3] = target: T1, Serine/threonine-protein kinase D2 (Homo sapiens, UniProt Q9BZL6); test: Binding affinity to wild-type human partial length PRKD2 (A519 to E838 residues) expressed in bacterial expression system by Kinomescan method
# T1 sequence (Q9BZL6 whole entry): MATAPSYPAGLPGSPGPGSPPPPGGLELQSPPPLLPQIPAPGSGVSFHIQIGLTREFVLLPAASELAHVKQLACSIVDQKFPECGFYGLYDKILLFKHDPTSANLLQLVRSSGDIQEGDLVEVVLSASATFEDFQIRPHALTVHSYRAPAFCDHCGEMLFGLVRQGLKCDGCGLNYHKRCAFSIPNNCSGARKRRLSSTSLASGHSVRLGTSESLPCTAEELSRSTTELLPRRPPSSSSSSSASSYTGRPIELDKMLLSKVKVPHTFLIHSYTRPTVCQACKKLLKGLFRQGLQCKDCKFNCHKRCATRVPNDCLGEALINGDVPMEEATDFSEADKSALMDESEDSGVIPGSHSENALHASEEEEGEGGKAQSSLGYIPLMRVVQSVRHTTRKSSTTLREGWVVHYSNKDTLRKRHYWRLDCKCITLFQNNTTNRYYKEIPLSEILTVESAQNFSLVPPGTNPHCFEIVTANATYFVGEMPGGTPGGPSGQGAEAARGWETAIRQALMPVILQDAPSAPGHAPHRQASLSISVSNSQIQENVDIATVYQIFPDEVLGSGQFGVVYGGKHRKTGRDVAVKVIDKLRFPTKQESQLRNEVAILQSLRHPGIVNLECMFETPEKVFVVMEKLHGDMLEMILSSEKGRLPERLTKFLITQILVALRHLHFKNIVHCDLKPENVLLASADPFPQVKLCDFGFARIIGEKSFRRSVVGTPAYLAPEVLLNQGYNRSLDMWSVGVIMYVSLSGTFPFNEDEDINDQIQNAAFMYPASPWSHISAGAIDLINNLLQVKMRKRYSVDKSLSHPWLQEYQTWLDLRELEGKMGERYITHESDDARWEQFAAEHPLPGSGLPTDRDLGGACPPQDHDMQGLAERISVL
# [4] = target: T2, Epidermal growth factor receptor (Homo sapiens, UniProt P00533);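 on IC50: human A431 cells pretreated 90 min, then EGF stimulated, sandwich ELISA measured decrease in EGF-induced receptor autophosphorylation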;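 on Kd: KINOMEscan competition binding with recombinant partial wild-type human EGFR (residues R669–V1011) produced in bacteria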
# Description: Binding affinity to wild-type human partial length EGFR (R669 to V1011 residues) expressed in bacterial expression system by Kinomescan method
# [5] = target: Serine/threonine-protein kinase SIK2 (Homo sapiens, UniProt Q9H0K1); test: Binding affinity to wild-type human full length SIK2 (M1 to N926 residues) expressed in bacterial expression system by Kinomescan method
# [6] = cells; type: functional, cell-based; details: Homo sapiens, UCH1, 72 h
# Description: Antiproliferative activity against human UCH1 cells measured after 72 hrs by alamar blue assay
# [7] = target: Tyrosine-protein kinase ABL2 (Homo sapiens, UniProt P42684); test: Binding affinity to wild-type human ABL2 (A248 to G542 residues) expressed in bacterial expression system by Kinomescan method
# [8] = target: Tyrosine-protein kinase ABL1 (Homo sapiens, UniProt P00519); test: Binding affinity to wild-type human ABL1 (S229 to K512 residues) expressed in mammalian expression system by Kinomescan method
# [9] = target: Activated CDC42 kinase 1 (Homo sapiens, UniProt Q07912); test: Binding affinity to wild-type human partial length TNK2 (S159 to D474 residues) expressed in bacterial expression system by Kinomescan method
# [10] = target: Proto-oncogene tyrosine-protein kinase receptor Ret (Homo sapiens, UniProt P07949); test: Binding affinity to wild-type human partial length RET (E713 to D1014 residues) expressed in bacterial expression system by Kinomescan method
# [11] = target: Aurora kinase B (Homo sapiens) (UniProt Q96GD4); test: Binding affinity to AURKB in human SUM159 cell lysates by multiplexed inhibitor bead profiling-based LC-MS/MS analysis; type: subcellular; details: Lysate
# [12] = target: T3, Cyclin-G-associated kinase (Homo sapiens, UniProt O14976); test: Binding affinity to wild-type human partial length GAK (G13 to Y338 residues) expressed in bacterial expression system by Kinomescan method
# T3 sequence (O14976 whole entry): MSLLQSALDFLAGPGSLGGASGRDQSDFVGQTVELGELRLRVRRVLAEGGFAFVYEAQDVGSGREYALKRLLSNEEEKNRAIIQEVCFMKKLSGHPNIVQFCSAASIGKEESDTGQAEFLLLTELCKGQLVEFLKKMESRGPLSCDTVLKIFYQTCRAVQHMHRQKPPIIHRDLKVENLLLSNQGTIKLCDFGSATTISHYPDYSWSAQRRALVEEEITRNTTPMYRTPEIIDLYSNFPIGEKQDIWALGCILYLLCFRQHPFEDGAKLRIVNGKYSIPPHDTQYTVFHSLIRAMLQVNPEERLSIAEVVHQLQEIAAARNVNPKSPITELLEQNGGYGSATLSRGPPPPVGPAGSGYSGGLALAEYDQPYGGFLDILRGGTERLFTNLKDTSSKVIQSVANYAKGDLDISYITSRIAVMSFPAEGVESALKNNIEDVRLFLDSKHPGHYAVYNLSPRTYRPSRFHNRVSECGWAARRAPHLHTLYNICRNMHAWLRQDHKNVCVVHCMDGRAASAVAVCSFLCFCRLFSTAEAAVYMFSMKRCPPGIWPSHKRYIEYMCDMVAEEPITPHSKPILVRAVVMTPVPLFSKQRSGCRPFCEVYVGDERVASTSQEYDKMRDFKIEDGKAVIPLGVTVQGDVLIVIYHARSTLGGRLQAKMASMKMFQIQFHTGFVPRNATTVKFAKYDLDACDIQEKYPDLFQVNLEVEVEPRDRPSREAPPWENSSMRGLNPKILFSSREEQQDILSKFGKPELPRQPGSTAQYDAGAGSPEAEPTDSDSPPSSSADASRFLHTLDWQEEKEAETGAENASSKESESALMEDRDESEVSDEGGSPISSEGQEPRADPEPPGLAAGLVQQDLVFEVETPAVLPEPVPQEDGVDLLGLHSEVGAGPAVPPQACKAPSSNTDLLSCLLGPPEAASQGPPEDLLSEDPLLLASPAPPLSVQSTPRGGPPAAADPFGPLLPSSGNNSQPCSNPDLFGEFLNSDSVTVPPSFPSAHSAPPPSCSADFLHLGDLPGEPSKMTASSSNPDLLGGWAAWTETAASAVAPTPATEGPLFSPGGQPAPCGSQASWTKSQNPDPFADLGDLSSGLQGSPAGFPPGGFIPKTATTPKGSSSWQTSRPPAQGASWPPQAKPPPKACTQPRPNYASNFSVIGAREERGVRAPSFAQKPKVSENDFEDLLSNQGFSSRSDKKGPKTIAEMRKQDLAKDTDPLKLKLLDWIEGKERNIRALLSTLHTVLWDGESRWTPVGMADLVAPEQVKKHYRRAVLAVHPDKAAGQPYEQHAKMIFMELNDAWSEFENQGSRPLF
# [13] = cells; type: functional, cell-based; details: Homo sapiens, 72 h
# Description: Antiproliferative activity against human UCH14 cells measured after 72 hrs by alamar blue assay
# [14] = cells; type: functional, cell-based; details: Homo sapiens, 72 h; remark: listed apart in the source
# Description: Antiproliferative activity against human UCH7 cells measured after 72 hrs by alamar blue assay
# [15] = cells; type: functional, cell-based; details: Homo sapiens, 72 h; remark: listed apart in the source
# Description: Antiproliferative activity against human UCH12 cells measured after 72 hrs by alamar blue assay
# [16] = target: Nucleoside diphosphate kinase B (Homo sapiens) (UniProt P22392); test: Binding affinity to NME2 in human SUM159 cell lysates by multiplexed inhibitor bead profiling-based LC-MS/MS analysis; type: subcellular; details: Lysate
# [17] = target: T4, Cyclin-G-associated kinase (Homo sapiens) (UniProt O14976); test: Inhibition of tracer 5 binding to human N-terminal nano luciferase-fused GAK expressed in HEK293 cells at 5 uM measured after 2 hrs by nanoBRET assay relative to control; type: cell-based
# T4 sequence (whole entry): T3 sequence (O14976 whole entry)
# [18] = target: T2, Epidermal growth factor receptor; type: cell-based
# Description: Inhibition of EGFR in human A431 cells assessed as reduction in EGF-stimulated EGFR autophosphorylation preincuabted for 90 mins followed by EGF-stimulation by sandwich-ELISA
# [19] = cells; type: functional, cell-based; details: Homo sapiens, 72 h; remark: listed apart in the source
# Description: Antiproliferative activity against human UMCHOR1 cells measured after 72 hrs by alamar blue assay
# [20] = target: T5, Dual specificity mitogen-activated protein kinase kinase 5 (Homo sapiens) (UniProt Q13163); test: Binding affinity to MAP2K5 in human SUM159 cell lysates by multiplexed inhibitor bead profiling-based LC-MS/MS analysis; type: subcellular; details: Lysate
# T5 sequence (whole entry): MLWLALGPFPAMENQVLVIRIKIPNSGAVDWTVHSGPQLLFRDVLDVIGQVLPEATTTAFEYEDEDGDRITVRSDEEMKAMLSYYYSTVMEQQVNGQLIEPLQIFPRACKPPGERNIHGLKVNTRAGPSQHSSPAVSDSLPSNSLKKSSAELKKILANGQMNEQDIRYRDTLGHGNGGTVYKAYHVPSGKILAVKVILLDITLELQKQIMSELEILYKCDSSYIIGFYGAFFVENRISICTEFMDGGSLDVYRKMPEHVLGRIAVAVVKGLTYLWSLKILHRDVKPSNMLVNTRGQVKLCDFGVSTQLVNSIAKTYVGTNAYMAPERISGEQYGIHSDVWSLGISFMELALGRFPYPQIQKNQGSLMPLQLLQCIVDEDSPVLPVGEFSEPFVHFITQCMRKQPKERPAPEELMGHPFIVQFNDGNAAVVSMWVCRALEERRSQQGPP
# [21] = cells; type: ADME, cell-based; details: Homo sapiens, WS1, 72 h
# Description: Cytotoxicity against human WS1 cells measured after 72 hrs by alamar blue assay
# [22] = cells; type: functional, cell-based; details: Homo sapiens, 72 h; remark: listed apart in the source
# Description: Antiproliferative activity against human CH22 cells measured after 72 hrs by alamar blue assay
# [23] = target: T4, Cyclin-G-associated kinase (Homo sapiens); test: Binding affinity to wild-type human partial length GAK (G13 to Y338 residues) expressed in bacterial expression system at 1 uM by Kinomescan method relative to control
# T2 sequence (P00533 whole entry, the tested form may be a part): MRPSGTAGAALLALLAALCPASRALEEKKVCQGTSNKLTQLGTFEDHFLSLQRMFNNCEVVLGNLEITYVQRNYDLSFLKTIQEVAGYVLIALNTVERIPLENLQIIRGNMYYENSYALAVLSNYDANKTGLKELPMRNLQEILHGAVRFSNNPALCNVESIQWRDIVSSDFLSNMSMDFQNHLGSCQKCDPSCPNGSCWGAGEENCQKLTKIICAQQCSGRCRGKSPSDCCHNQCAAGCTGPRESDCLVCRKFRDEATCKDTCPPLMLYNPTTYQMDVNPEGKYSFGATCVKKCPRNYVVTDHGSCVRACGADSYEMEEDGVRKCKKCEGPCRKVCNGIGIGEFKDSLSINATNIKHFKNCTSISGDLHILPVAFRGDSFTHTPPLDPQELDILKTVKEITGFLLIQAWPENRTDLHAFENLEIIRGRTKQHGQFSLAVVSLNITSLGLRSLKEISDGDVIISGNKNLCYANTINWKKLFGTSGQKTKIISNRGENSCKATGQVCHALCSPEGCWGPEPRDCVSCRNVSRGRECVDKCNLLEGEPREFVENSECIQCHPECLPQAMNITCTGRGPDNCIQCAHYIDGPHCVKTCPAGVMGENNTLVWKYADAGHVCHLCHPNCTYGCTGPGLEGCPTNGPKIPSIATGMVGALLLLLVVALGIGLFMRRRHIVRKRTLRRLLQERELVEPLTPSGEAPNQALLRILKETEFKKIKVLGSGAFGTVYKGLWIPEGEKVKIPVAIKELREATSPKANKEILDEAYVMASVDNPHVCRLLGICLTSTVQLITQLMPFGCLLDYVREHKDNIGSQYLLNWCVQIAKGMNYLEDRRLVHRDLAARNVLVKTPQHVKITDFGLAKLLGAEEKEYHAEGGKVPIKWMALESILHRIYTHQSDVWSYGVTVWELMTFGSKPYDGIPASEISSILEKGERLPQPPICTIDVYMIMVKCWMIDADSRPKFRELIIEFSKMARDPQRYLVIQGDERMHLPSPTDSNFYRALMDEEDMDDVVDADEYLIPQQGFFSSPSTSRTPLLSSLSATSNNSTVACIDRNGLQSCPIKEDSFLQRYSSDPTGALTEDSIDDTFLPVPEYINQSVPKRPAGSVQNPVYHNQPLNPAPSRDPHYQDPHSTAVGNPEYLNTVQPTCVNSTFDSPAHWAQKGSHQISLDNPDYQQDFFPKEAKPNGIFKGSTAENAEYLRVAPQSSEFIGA
# Activated CDC42 kinase 1, sequence (Q07912 whole entry, the tested form may be a part): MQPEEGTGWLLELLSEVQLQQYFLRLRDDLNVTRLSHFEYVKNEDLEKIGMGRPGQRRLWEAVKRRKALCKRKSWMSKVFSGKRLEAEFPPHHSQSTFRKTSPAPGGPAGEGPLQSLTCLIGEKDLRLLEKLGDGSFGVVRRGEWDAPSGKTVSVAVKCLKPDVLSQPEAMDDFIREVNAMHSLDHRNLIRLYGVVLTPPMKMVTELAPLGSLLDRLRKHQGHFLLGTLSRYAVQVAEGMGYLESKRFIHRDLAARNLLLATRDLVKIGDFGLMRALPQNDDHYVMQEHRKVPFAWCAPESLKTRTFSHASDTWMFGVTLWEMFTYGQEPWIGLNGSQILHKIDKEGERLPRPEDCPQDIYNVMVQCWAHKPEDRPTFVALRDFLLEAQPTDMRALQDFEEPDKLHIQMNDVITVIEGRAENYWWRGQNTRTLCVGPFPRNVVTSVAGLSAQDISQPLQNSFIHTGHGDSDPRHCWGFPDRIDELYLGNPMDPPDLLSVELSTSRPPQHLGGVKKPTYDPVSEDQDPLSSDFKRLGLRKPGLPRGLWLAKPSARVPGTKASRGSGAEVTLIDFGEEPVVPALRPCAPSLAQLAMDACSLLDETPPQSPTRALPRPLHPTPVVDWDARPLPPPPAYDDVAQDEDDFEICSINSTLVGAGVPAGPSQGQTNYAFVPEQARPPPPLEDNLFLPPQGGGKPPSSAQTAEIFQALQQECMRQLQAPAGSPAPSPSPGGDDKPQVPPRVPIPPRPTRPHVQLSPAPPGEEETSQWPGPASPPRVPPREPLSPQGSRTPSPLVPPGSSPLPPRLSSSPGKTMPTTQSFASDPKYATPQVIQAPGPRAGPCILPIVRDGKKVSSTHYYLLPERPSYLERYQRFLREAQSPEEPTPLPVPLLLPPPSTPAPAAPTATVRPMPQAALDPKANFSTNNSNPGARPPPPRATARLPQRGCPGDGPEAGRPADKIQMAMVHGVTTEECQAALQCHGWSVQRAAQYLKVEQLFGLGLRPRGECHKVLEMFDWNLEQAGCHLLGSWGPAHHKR
# Tyrosine-protein kinase ABL1, sequence (P00519 whole entry, the tested form may be a part): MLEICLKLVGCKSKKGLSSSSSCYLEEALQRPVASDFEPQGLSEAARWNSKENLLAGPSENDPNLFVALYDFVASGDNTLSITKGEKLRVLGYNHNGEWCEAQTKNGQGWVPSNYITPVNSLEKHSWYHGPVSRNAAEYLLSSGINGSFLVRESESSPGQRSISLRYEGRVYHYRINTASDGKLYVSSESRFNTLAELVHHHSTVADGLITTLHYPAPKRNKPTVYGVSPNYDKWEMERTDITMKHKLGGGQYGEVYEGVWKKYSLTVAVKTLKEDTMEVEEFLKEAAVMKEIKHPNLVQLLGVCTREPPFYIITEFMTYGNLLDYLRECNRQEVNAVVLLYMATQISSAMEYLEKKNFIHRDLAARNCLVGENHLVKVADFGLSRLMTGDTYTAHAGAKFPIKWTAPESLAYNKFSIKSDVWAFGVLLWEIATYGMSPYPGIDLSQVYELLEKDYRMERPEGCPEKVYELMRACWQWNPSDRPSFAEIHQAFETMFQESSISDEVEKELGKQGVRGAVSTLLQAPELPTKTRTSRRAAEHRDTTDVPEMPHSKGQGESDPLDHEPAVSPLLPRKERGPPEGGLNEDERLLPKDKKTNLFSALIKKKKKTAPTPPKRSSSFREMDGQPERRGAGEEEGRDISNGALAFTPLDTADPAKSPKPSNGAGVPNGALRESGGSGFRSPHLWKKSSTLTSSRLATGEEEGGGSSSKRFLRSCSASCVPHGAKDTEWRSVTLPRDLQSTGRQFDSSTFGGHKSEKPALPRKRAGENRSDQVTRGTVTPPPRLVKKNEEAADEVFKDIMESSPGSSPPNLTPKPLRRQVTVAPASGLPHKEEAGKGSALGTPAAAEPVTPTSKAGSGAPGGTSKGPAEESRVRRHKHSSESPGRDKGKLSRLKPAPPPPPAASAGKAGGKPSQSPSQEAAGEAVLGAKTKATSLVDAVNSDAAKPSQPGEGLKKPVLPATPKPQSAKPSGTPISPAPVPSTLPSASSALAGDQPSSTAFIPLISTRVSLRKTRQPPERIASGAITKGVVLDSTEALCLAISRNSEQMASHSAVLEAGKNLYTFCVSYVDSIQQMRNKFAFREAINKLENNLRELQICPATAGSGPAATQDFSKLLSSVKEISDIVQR
# Proto-oncogene tyrosine-protein kinase receptor Ret, sequence (P07949 whole entry, the tested form may be a part): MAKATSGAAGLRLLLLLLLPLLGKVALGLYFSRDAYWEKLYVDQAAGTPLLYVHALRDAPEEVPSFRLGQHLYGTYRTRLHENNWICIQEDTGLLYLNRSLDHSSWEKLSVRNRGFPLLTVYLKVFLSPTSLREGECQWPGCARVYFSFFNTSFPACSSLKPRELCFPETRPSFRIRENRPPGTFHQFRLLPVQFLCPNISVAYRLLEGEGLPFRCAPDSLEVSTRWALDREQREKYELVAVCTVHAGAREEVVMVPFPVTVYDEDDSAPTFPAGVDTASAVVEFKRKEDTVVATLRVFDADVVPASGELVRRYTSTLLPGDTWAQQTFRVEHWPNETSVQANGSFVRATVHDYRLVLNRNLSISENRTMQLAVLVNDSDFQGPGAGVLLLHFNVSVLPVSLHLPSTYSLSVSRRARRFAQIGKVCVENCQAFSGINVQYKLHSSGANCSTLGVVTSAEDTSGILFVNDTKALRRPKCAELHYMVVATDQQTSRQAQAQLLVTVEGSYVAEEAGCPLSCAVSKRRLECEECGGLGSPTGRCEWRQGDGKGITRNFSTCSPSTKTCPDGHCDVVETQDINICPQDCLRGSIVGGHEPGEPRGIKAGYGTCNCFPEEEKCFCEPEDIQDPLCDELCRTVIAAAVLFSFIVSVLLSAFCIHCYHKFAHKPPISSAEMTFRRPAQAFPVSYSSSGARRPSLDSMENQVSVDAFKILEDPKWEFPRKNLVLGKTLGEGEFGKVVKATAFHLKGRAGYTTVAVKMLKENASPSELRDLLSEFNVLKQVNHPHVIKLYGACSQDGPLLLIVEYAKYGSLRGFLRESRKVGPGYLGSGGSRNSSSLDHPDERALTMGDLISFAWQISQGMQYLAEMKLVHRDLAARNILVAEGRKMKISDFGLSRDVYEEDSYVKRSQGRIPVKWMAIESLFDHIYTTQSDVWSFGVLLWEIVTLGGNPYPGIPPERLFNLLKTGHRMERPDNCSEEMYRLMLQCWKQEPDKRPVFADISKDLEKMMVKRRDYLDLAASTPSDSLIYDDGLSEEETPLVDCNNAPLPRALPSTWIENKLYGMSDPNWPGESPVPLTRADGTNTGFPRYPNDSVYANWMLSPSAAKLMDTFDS
# Nucleoside diphosphate kinase B (Homo sapiens), sequence (P22392 whole entry, the tested form may be a part): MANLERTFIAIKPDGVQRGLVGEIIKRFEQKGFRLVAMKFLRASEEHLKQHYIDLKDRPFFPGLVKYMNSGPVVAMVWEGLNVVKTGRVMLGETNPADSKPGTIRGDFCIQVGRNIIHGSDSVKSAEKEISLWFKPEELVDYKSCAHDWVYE
# Aurora kinase B (Homo sapiens), sequence (Q96GD4 whole entry, the tested form may be a part): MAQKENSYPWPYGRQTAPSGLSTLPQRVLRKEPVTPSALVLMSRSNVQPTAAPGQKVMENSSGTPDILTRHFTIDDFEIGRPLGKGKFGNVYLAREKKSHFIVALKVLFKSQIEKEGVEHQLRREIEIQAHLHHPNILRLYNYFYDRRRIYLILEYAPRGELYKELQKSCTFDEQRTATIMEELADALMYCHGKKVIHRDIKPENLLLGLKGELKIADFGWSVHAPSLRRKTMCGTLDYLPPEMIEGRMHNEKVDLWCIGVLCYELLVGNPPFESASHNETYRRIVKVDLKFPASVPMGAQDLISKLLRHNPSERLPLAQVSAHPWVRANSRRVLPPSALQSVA
Compound,IC50 [2] [nM],Kd [4] [nM],IC50 [6] [nM],IC50 [13] [nM],IC50 [14] [nM],IC50 [15] [nM],inhibition [17] [%],IC50 [19] [nM],IC50 [21] [nM],IC50 [22] [nM],further results
COc1cccc(Nc2ncnn3ccc(CN4CC[C@@H](N)[C@H](O)C4)c23)c1 [BMS-690514],> 50000,220,530,–,–,–,–,–,–,–,Selectivity ratio [1]: > 700; Kd [3]: < 225 nM; Kd [5]: < 225 nM; Kd [7]: < 225 nM; Kd [8]: < 225 nM; Kd [9]: < 225 nM; Kd [10]: < 225 nM
COc1cc2nccc(Nc3ccc(OCc4cccc(F)c4)c(Cl)c3)c2cc1OC,2900,32,2600,7000,2700,5500,22,1500,8600,1000,Activity [11]: Active; Kd [12]: > 10000 nM; Activity [16]: Active; IC50 [18]: 1700 nM; Activity [20]: Active
CS(=O)(=O)CCNCc1ccc(-c2ccc3ncnc(Nc4ccc(OCc5cccc(F)c5)c(Cl)c4)c3c2)o1 [LAPATINIB],> 50000,–,3200,> 50000,26000,33000,0,25000,13000,25000,Activity [23]: < 50%
